Source: the kinase profiling compilation of Christmann-Franck et al. (2016)

Assays:
Assay in all cases: radiometric filter-binding kinase assay, Kinase HotSpot
Details in all cases: compound 0.5 µM; ATP 10 µM
NTRK1 (human) = NTRK1 (human) (UniProt P04629)
CSNK2A2 (human) = CSNK2A2 (human) (UniProt P19784)
CDK3 CCNE1 (human) = CDK3 CCNE1 (human) (UniProt Q00526+P24864)
STK3 (human) = STK3 (human) (UniProt Q13188)
WNK3 (human) = WNK3 (human) (UniProt Q9BYP7)
FLT3 (human) = FLT3 (human) (UniProt P36888)
LTK (human) = LTK (human) (UniProt P29376)
IKBKE (human) = IKBKE (human) (UniProt Q14164)
CAMK4 (human) = CAMK4 (human) (UniProt Q16566)
PHKG2 (human) = PHKG2 (human) (UniProt P15735)
PIM1 (human) = PIM1 (human) (UniProt P11309)
IRAK4 (human) = IRAK4 (human) (UniProt Q9NWZ3)
ULK2 (human) = ULK2 (human) (UniProt Q8IYT8)
NEK9 (human) = NEK9 (human) (UniProt Q8TD19)
CHEK1 (human) = CHEK1 (human) (UniProt O14757)
MAP3K7 TAB1 (human) = MAP3K7 TAB1 (human) (UniProt O43318+Q15750)
PAK2 (human) = PAK2 (human) (UniProt Q13177)
[1] = test system: MKNK1 (human), Q9BUB5 [T385D; 165-205 del]
EPHB4 (human) = EPHB4 (human) (UniProt P54760)
EPHA7 (human) = EPHA7 (human) (UniProt Q15375)
EPHA8 (human) = EPHA8 (human) (UniProt P29322)
EPHB3 (human) = EPHB3 (human) (UniProt P54753)
WEE1 (human) = WEE1 (human) (UniProt P30291)
TSSK1B (human) = TSSK1B (human) (UniProt Q9BXA7)
CDK9 CCNK (human) = CDK9 CCNK (human) (UniProt O75909+P50750)
PRKD3 (human) = PRKD3 (human) (UniProt O94806)
PRKCE (human) = PRKCE (human) (UniProt Q02156)
PTK6 (human) = PTK6 (human) (UniProt Q13882)
LRRK2 (human) = LRRK2 (human) (UniProt Q5S007)
NEK1 (human) = NEK1 (human) (UniProt Q96PY6)
PKN2 (human) = PKN2 (human) (UniProt Q16513)
PRKACA (human) = PRKACA (human) (UniProt P17612)
AKT2 (human) = AKT2 (human) (UniProt P31751)
CSF1R (human) = CSF1R (human) (UniProt P07333)
CSNK1G1 (human) = CSNK1G1 (human) (UniProt Q9HCP0)
STK16 (human) = STK16 (human) (UniProt O75716)
CDK4 CCND1 (human) = CDK4 CCND1 (human) (UniProt P24385+P11802)
MAPK9 (human) = MAPK9 (human) (UniProt P45984)

Chain of PRKD3 (human) (O94806 whole entry, looked up): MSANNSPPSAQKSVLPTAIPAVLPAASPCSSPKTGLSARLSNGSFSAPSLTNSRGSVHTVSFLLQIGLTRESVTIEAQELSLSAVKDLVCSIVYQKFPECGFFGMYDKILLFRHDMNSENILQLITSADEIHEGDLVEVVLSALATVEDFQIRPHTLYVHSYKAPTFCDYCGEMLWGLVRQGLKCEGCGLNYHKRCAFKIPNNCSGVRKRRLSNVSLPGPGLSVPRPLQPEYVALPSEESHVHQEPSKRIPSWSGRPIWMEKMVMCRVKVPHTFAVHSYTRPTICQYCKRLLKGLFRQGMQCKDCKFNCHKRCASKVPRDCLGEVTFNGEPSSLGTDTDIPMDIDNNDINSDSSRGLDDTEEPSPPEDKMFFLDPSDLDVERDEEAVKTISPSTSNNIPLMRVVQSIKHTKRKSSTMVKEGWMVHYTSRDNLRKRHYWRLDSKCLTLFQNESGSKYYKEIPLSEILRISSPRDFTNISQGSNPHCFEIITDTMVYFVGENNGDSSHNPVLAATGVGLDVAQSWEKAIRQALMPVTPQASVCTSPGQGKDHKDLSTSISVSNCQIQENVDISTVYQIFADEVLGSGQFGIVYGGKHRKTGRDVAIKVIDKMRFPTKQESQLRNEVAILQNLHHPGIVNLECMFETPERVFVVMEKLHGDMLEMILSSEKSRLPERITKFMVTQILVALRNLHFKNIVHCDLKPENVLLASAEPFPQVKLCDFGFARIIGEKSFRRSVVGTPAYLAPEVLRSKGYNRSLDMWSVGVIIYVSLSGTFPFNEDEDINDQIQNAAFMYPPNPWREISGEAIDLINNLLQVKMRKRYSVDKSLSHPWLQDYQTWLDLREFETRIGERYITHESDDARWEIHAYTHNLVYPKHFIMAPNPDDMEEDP
Chain of CSF1R (human) (P07333 whole entry, looked up): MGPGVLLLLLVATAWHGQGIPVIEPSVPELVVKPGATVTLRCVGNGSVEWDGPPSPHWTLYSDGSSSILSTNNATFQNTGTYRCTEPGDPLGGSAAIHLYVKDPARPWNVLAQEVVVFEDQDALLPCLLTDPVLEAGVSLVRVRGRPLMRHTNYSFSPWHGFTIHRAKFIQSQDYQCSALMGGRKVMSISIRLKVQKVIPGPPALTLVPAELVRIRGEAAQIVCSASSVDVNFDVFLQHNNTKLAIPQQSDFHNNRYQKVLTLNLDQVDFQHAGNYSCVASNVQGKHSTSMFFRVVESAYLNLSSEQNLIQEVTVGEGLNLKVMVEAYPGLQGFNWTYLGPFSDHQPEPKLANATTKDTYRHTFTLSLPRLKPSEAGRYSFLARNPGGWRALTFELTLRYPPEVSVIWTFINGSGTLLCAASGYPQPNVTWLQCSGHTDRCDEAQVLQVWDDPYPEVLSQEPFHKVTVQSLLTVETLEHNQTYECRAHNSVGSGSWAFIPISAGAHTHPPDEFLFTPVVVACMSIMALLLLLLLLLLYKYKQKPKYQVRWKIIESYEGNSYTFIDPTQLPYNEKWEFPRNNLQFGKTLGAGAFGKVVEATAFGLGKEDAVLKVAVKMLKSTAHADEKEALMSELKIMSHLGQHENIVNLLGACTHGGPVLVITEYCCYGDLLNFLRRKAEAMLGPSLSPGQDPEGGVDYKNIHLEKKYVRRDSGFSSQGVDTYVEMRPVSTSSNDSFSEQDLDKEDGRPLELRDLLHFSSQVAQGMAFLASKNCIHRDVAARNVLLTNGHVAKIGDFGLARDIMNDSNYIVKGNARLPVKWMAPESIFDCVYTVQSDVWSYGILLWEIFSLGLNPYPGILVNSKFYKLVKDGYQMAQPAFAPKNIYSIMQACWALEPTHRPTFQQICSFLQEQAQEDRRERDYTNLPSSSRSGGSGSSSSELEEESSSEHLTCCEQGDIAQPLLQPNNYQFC
Chain of CSNK2A2 (human) (P19784 whole entry, looked up): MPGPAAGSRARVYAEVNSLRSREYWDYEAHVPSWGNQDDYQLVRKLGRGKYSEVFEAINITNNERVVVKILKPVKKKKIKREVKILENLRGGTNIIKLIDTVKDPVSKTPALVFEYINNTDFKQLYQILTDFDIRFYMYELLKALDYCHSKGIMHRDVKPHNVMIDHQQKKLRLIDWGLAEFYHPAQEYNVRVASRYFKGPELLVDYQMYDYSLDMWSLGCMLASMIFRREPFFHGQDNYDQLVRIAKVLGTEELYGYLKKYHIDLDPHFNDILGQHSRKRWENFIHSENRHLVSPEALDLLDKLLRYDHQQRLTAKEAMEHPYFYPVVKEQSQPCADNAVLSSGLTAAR
Chain of LRRK2 (human) (Q5S007 whole entry, looked up): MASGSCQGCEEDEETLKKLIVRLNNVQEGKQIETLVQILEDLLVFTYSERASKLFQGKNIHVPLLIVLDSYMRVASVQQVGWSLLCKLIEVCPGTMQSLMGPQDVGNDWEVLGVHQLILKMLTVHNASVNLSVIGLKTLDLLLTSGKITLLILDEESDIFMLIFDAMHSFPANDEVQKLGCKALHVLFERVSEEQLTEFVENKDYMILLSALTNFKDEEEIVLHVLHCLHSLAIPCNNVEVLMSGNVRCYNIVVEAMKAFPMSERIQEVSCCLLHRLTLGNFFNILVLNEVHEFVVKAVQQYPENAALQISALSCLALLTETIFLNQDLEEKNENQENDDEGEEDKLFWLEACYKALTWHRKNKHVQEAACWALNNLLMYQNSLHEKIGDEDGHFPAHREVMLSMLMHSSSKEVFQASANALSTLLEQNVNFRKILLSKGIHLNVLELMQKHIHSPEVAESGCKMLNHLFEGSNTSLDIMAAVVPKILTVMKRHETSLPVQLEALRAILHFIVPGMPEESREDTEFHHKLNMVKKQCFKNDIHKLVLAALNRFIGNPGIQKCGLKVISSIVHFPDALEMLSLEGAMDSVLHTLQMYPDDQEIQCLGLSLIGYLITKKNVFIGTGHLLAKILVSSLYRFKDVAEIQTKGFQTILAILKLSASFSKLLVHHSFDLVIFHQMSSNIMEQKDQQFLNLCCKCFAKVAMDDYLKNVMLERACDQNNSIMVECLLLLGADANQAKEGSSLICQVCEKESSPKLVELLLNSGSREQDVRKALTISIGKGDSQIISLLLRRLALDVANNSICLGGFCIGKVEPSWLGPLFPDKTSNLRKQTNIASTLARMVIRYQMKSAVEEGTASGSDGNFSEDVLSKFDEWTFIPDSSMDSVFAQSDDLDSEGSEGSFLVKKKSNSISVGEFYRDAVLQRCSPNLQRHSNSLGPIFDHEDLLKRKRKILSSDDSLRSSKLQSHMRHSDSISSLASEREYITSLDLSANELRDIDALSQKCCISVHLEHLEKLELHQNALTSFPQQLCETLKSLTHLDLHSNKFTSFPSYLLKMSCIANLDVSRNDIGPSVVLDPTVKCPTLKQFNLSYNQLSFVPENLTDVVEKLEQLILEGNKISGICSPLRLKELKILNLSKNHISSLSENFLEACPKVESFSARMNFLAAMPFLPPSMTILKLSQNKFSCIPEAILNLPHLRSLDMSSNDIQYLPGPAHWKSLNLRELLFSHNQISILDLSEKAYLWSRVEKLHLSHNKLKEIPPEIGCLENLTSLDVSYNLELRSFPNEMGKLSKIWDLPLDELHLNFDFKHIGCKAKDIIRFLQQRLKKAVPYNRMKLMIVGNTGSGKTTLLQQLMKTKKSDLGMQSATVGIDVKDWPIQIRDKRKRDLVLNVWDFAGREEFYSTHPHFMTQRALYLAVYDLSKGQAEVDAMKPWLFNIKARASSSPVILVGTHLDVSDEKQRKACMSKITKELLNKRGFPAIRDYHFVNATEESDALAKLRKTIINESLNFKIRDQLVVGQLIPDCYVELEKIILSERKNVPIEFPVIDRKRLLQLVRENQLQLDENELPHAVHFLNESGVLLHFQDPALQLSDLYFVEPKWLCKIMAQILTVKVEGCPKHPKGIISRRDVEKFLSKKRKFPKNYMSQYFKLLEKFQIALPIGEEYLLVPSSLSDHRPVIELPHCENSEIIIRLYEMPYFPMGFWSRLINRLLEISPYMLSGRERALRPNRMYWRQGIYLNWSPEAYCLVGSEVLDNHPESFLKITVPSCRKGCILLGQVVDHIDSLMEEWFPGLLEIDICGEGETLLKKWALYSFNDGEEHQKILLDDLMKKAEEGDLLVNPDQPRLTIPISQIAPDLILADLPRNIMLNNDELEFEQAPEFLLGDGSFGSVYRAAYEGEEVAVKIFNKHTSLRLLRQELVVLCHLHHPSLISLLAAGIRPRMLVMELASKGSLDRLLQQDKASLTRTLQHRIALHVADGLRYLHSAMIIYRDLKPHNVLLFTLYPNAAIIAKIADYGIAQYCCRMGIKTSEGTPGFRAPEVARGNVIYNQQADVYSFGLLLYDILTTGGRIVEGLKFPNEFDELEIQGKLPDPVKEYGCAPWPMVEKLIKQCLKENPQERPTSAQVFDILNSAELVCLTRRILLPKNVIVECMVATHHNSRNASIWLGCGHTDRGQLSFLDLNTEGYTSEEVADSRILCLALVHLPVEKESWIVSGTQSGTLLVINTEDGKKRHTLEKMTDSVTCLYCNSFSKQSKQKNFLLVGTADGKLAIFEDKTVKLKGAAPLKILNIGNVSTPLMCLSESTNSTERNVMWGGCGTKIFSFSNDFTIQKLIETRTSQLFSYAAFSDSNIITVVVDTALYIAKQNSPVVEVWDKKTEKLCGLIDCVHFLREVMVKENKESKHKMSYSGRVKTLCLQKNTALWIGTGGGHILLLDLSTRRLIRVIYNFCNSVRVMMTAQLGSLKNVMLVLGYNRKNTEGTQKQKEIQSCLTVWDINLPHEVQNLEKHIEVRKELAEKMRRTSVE
Chain of PIM1 (human) (P11309 whole entry, looked up): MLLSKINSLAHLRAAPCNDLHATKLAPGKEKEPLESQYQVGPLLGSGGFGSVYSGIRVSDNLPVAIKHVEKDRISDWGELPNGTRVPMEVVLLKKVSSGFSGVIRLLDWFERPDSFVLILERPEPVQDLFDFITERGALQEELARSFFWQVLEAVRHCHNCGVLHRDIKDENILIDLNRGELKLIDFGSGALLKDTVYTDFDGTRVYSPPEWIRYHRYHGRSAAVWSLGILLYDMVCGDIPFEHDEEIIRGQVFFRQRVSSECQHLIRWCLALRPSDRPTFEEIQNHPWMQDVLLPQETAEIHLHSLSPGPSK

SMILES | residual activity (NTRK1 (human)) | residual activity (CSNK2A2 (human)) | residual activity (CDK3 CCNE1 (human)) | residual activity (WNK3 (human)) | residual activity (FLT3 (human)) | residual activity (LTK (human)) | residual activity (IKBKE (human)) | residual activity (CAMK4 (human)) | residual activity (PHKG2 (human)) | residual activity (IRAK4 (human)) | residual activity (ULK2 (human)) | residual activity (NEK9 (human)) | residual activity (CHEK1 (human)) | residual activity (MAP3K7 TAB1 (human)) | residual activity (PAK2 (human)) | residual activity [1] | residual activity (EPHA7 (human)) | residual activity (EPHA8 (human)) | residual activity (WEE1 (human)) | residual activity (TSSK1B (human)) | other results
NC(=O)c1cccc(-c2cc(Nc3ccc(OC(F)(F)F)cc3)ncn2)c1 | 96.6% | 92.7% | 98.8% | 105% | 98.9% | 111% | 107% | 90.5% | 103% | 159% | 103% | 93.8% | 94.2% | 99.1% | 106% | 95.9% | 99.1% | 94.5% | 98.9% | 95.4% | residual activity (STK3 (human)): 93.6%; residual activity (PIM1 (human)): 101%; residual activity (EPHB4 (human)): 90.6%; residual activity (EPHB3 (human)): 98%; residual activity (CDK9 CCNK (human)): 106%; residual activity (PRKD3 (human)): 93.2%; residual activity (PRKCE (human)): 111%; residual activity (PTK6 (human)): 94.5%; residual activity (LRRK2 (human)): 108%; residual activity (NEK1 (human)): 89.6%; residual activity (PKN2 (human)): 89.8%; residual activity (PRKACA (human)): 94.2%; residual activity (AKT2 (human)): 105%; residual activity (CSF1R (human)): 94.1%; residual activity (CSNK1G1 (human)): 97.8%; residual activity (STK16 (human)): 81.8%; residual activity (CDK4 CCND1 (human)): 99.8%
CC(C)(C)c1cc(C=C(C#N)C#N)cc(Br)c1O | 100% | 94.5% | 98.9% | 106% | 102% | 96.5% | 86.8% | 94.2% | 106% | 182% | 103% | 103% | 100% | 87.9% | 96.5% | 95.9% | 107% | 100% | 90.9% | 95.6% | residual activity (PIM1 (human)): 94.7%; residual activity (EPHB3 (human)): 107%; residual activity (MAPK9 (human)): 103%; residual activity (CDK9 CCNK (human)): 109%; residual activity (PRKD3 (human)): 92.7%; residual activity (PRKCE (human)): 108%; residual activity (PTK6 (human)): 91.4%; residual activity (LRRK2 (human)): 109%; residual activity (NEK1 (human)): 97.7%; residual activity (PKN2 (human)): 64.3%; residual activity (PRKACA (human)): 102%; residual activity (AKT2 (human)): 97.7%; residual activity (CSF1R (human)): 96.8%; residual activity (CSNK1G1 (human)): 106%; residual activity (STK16 (human)): 99.2%; residual activity (CDK4 CCND1 (human)): 115%
COc1ccc(Cl)cc1NC(=O)Nc1cc(C)nc2ccccc12 | 92.5% | 96% | 93.6% | 99.9% | 94.4% | 87.3% | 107% | 93.6% | 98.6% | 99.9% | 106% | 104% | 96.6% | 101% | 97.2% | 101% | 99.7% | 97.8% | 89% | 94.6% | residual activity (STK3 (human)): 98.9%; residual activity (PIM1 (human)): 98.1%; residual activity (EPHB4 (human)): 93.7%; residual activity (MAPK9 (human)): 105%; residual activity (CDK9 CCNK (human)): 95.9%; residual activity (PRKD3 (human)): 97.1%; residual activity (PRKCE (human)): 99.7%; residual activity (PTK6 (human)): 101%; residual activity (LRRK2 (human)): 98%; residual activity (NEK1 (human)): 96.3%; residual activity (PKN2 (human)): 89.7%; residual activity (PRKACA (human)): 101%; residual activity (AKT2 (human)): 94.9%; residual activity (CSF1R (human)): 94.8%; residual activity (CSNK1G1 (human)): 97.9%; residual activity (STK16 (human)): 105%; residual activity (CDK4 CCND1 (human)): 98.8%
CN(C)CCCn1cc(C2=C(c3c[nH]c4ccccc34)C(=O)NC2=O)c2ccccc21 | 108% | 92% | 93.2% | 98.4% | 5.6% | 99.5% | 89.4% | 89.5% | 97.9% | 135% | 145% | 100% | 39.1% | 93.6% | 96.2% | 81.2% | 97% | 103% | 101% | 89.8% | residual activity (STK3 (human)): 44.2%; residual activity (EPHB4 (human)): 86.8%; residual activity (EPHB3 (human)): 95.2%; residual activity (MAPK9 (human)): 98.7%; residual activity (CDK9 CCNK (human)): 60.3%; residual activity (PRKD3 (human)): 54.6%; residual activity (PRKCE (human)): 0.493%; residual activity (PTK6 (human)): 95.3%; residual activity (LRRK2 (human)): 89.8%; residual activity (NEK1 (human)): 92.5%; residual activity (PKN2 (human)): 72.1%; residual activity (PRKACA (human)): 72%; residual activity (AKT2 (human)): 88.7%; residual activity (CSF1R (human)): 76.7%; residual activity (CSNK1G1 (human)): 99.1%; residual activity (STK16 (human)): 80.8%; residual activity (CDK4 CCND1 (human)): 60.7%
